Active and inactive are the calls of the source. No cut-off for these calls is given here.
Experiments:
[1] = tested on: Candida albicans; assay: Antibiofilm activity against fluconazole-resistant Candida albicans DAY185 assessed as inhibition of biofilm formation at 1 ug/ml measured after 24 hrs by crystal violet staining based analysis relative to control; type: functional
[2] = tested on: Candida albicans; assay: Antibiofilm activity against fluconazole-resistant Candida albicans DAY185 assessed as inhibition of biofilm formation at 5 ug/ml measured after 24 hrs by crystal violet staining based analysis relative to control; type: functional, organism-based; conditions: dose 5.0 µg/ml
[3] = tested on: Candida albicans; assay: Antibiofilm activity against fluconazole-resistant Candida albicans DAY185 assessed as inhibition of biofilm formation at 0.5 ug/ml measured after 24 hrs by crystal violet staining based analysis relative to control; type: functional, organism-based; conditions: dose 0.5 µg/ml
[4] = tested on: Candida albicans; assay: Additive antibiofilm activity against fluconazole-resistant Candida albicans DAY185 assessed as inhibition of biofilm formation at 10 ug/ml measured after 24 hrs in presence of BTZ by crystal violet staining based analysis relative to control; type: functional, organism-based; conditions: dose 10.0 µg/ml
[5] = Toxicity in Caenorhabditis elegans assessed as nematode survival at 100 ug/ml treated for 7 days; conditions: 168 h, dose 100 µg/ml, time 7 day
[6] = tested on: Brassica rapa; assay: Toxicity in Brassica rapa assessed as seed germination rate at 10 to 100 ug/ml treated for 4 days relative to control; type: organism-based; conditions: in vivo, 96 h, at 10 to 100 µg/mL, dose 10-100 µg/ml, time 4 day
[7] = tested on: Candida albicans; assay: Antibiofilm activity against fluconazole-resistant Candida albicans DAY185 assessed as inhibition of biofilm formation at 50 ug/ml measured after 24 hrs by crystal violet staining based analysis relative to control; type: functional
[8] = tested on: Candida albicans; assay: Inhibition of yeast to hypha transition in fluconazole-resistant Candida albicans DAY185 assessed as decrease in cell aggregation at 10 to 20 ug/ml measured after 24 hrs by SEM analysis; type: functional, organism-based; conditions: dose 10-20 µg/ml
[9] = tested on: [Candida] auris; assay: Antibiofilm activity against Candida auris KCTC 17809 assessed as inhibition of biofilm formation by crystal violet staining based analysis; type: functional, organism-based; conditions: Candidozyma auris
[10] = tested on: Candida albicans; assay: Antibiofilm activity against fluconazole-resistant Candida albicans DAY185 assessed as inhibition of biofilm formation at 10 to 20 ug/ml measured after 24 hrs by 2D/3D imaging analysis relative to control; type: functional; conditions: dose 10-20 µg/ml
[11] = tested on: [Candida] auris; assay: Antibiofilm activity against Candida auris KCTC 17810 assessed as inhibition of biofilm formation by crystal violet staining based analysis; type: functional, organism-based; conditions: Candidozyma auris
[12] = tested on: Candida albicans; assay: Antibiofilm activity against fluconazole-resistant Candida albicans DAY185 assessed as reduction in substratum coverage on bio-compatible PLGA surface coated with compound at 20 ug/ml incubated for 24 hrs by COMSTAT analysis; type: functional, organism-based; conditions: dose 20.0 µg/ml
[13] = tested on: Candida albicans; assay: Additive antibiofilm activity against fluconazole-resistant Candida albicans DAY185 assessed as inhibition of biofilm formation at 10 ug/ml measured after 24 hrs in presence of AMB by crystal violet staining based analysis relative to control; type: functional, organism-based; conditions: dose 10.0 µg/ml
[14] = tested on: Candida albicans; assay: Antibiofilm activity against fluconazole-resistant Candida albicans DAY185 assessed as inhibition of biofilm formation at 20 ug/ml measured after 24 hrs by crystal violet staining based analysis relative to control; type: functional
[15] = tested on: Candida albicans; assay: Upregulation of CDR11 mRNA level in fluconazole-resistant Candida albicans DAY185 assessed as fold increase at 50 ug/ml incubated for 6 hrs by qRT-PCR analysis relative to control; type: functional; conditions: dose 50.0 µg/ml
[16] = tested on: Candida albicans; assay: Downregulation of HWP1 mRNA level in fluconazole-resistant Candida albicans DAY185 assessed as fold decrease at 50 ug/ml incubated for 6 hrs by qRT-PCR analysis relative to control; type: functional; conditions: dose 50.0 µg/ml
[17] = tested on: Candida albicans; assay: Antibiofilm activity against fluconazole-resistant Candida albicans DAY185 assessed as reduction in overall biofilm mass on bio-compatible PLGA surface coated with compound at 10 to 20 ug/ml incubated for 24 hrs by CLSM analysis; type: functional, organism-based; conditions: dose 10-20 µg/ml
[18] = tested on: Candida albicans; assay: Inhibition of yeast to hypha transition in fluconazole-resistant Candida albicans DAY185 assessed as decrease in filamentous growth at 10 to 20 ug/ml measured after 24 hrs by SEM analysis; type: functional, organism-based; conditions: dose 10-20 µg/ml
[19] = tested on: Candida albicans; assay: Antibiofilm activity against Candida albicans KCCM 12552 assessed as inhibition of biofilm formation by crystal violet staining based analysis; type: functional, organism-based
[20] = tested on: Candida albicans; assay: Downregulation of ALS3 mRNA level in fluconazole-resistant Candida albicans DAY185 assessed as fold decrease at 50 ug/ml incubated for 6 hrs by qRT-PCR analysis relative to control; type: functional; conditions: dose 50.0 µg/ml
[21] = tested on: Candida albicans; assay: Antibiofilm activity against fluconazole-resistant Candida albicans DAY185 assessed as reduction in mean biofilm thickness on bio-compatible PLGA surface coated with compound incubated for 24 hrs by COMSTAT analysis; type: functional, organism-based
[22] = tested on: Candida albicans; assay: Antibiofilm activity against fluconazole-resistant Candida albicans DAY185 assessed as reduction in biofilm mass on bio-compatible PLGA surface coated with compound incubated for 24 hrs by COMSTAT analysis; type: functional, organism-based
[23] = tested on: Candida albicans; assay: Inhibition of yeast to hypha transition in fluconazole-resistant Candida albicans DAY185 assessed as decrease in hyphal adhesion at 5 to 20 ug/ml measured after 24 hrs by SEM analysis; type: functional, organism-based; conditions: dose 5-20 µg/ml
[24] = tested on: Candida albicans; assay: Upregulation of YWP1 mRNA level in fluconazole-resistant Candida albicans DAY185 assessed as fold increase at 50 ug/ml incubated for 6 hrs by qRT-PCR analysis relative to control; type: functional; conditions: dose 50.0 µg/ml
[25] = tested on: Candida albicans; assay: Inhibition of yeast to hypha transition in fluconazole-resistant Candida albicans DAY185 assessed as decrease in hyphal growth at 5 to 20 ug/ml measured after 24 hrs by SEM analysis; type: functional, organism-based; conditions: dose 5-20 µg/ml
[26] = tested on: Candida albicans; assay: Downregulation of UME6 mRNA level in fluconazole-resistant Candida albicans DAY185 assessed as fold decrease at 50 ug/ml incubated for 6 hrs by qRT-PCR analysis relative to control; type: functional; conditions: dose 50.0 µg/ml
[27] = tested on: Candida albicans; assay: Downregulation of ECE1 mRNA level in fluconazole-resistant Candida albicans DAY185 assessed as fold decrease at 50 ug/ml incubated for 6 hrs by qRT-PCR analysis relative to control; type: functional; conditions: dose 50.0 µg/ml
[28] = tested on: Candida albicans; assay: Antibiofilm activity against Candida albicans ATCC 10231 assessed as inhibition of biofilm formation by crystal violet staining based analysis; type: functional, organism-based
[29] = tested on: Candida albicans; assay: Antibiofilm activity against fluconazole-resistant Candida albicans DAY185 assessed as reduction in biofilm thickness on bio-compatible PLGA surface coated with compound at 10 to 20 ug/ml incubated for 24 hrs by CLSM analysis; type: functional, organism-based; conditions: dose 10-20 µg/ml
[30] = tested on: Candida albicans; assay: Antibiofilm activity against fluconazole-resistant Candida albicans DAY185 assessed as inhibition of biofilm formation on bio-compatible PLGA surface coated with compound at 10 to 20 ug/ml incubated for 24 hrs by CLSM analysis; type: functional, organism-based; conditions: dose 10-20 µg/ml
[31] = tested on: Candida albicans; assay: Inhibition of yeast to hypha transition in fluconazole-resistant Candida albicans DAY185 assessed as decrease in germ tube formation at 10 to 20 ug/ml measured after 24 hrs by SEM analysis; type: functional, organism-based; conditions: dose 10-20 µg/ml

Clc1ccc(CCC(Cn2ccnc2)Sc2c(Cl)cccc2Cl)cc1 (centres undefined) [BUTOCONAZOLE]
inhibition at 1 µg/mL [1]: 56% | inhibition [2]: Active

C[C@@H]1[C@H](O)[C@@H](C)/C=C/C=C/C=C/C=C/C=C/C=C/C=C/[C@H](O[C@@H]2O[C@H](C)[C@@H](O)[C@H](N)[C@@H]2O)C[C@@H]2O[C@](O)(C[C@@H](O)C[C@@H](O)[C@H](O)CC[C@@H](O)C[C@@H](O)CC(=O)O[C@H]1C)C[C@H](O)[C@H]2C(=O)O [AMPHOTERICIN B]
inhibition at 1 µg/mL [1]: 96% | inhibition [3]: Active

Clc1ncnc2[nH]cc(I)c12
inhibition [4]: Active | Activity [5]: Toxic | Activity [6]: > 90% | inhibition at 50 µg/mL [7]: > 95% | inhibition [8]: Active | inhibition [9]: Dose-dependent-effect | inhibition [10]: Active; Significant Effect Was Observed At 20 Ug/Ml | inhibition [11]: Dose-dependent-effect | Activity [12]: Active | inhibition [13]: Active | inhibition at 20 µg/mL [14]: > 85% | fold change (FC) [15]: 13 | fold change (FC) [16]: 55 | Activity [17]: Active; More Pronounced Effects Were Observed At Higher Concentration | inhibition [18]: Active | inhibition [19]: Dose-dependent-effect | fold change (FC) [20]: 145 | Activity [21]: Dose-dependent-effect; Nearly Undetectable Levels Were Observed At 20 Ug/Ml | Activity [22]: Dose-dependent-effect; Nearly Undetectable Levels Were Observed At 20 Ug/Ml | inhibition [23]: Active | fold change (FC) [24]: 14 | inhibition [25]: Active | fold change (FC) [26]: 15 | fold change (FC) [27]: 267 | inhibition [28]: Dose-dependent-effect | Activity [29]: Active; More Pronounced Effects Were Observed At Higher Concentration | inhibition [30]: Active | inhibition [31]: Active

OC(Cn1cncn1)(Cn1cncn1)c1ccc(F)cc1F [FLUCONAZOLE]
inhibition at 1 µg/mL [1]: < 12%

Clc1ncnc2[nH]cc(Br)c12
inhibition at 50 µg/mL [7]: > 85%

Source: ChEMBL document CHEMBL6182857, “Targeting biofilm formation in Candida albicans with halogenated pyrrolopyrimidine derivatives” (Eur J Med Chem, 2025)
